# Test results taken from US9078851B2, “Composition for preventing or treating a spinal cord injury” (UNIVERSITY-INDUSTRY COOPERATION GROUP OF KYUNG HEE, priority 2009, dated 2015).
# How the values were obtained:
# Type in all cases: in vivo, rat
# [1] = tested on: myelin sheath of nerve cell; assay: Immunofluorescence staining of myelin base protein (MBP) after spinal cord injury
# Method: (§1) For the present experiment, male white mice (Sprague-Dawley 240-250 g, 7 weeks, 10 mice) were under general anesthetics by an intraperitoneal injection of Ketamin (80 mg/kg, Yuhan Corporation) and Rompun (7.4 mg/kg, Bayer Korea Corporation). Laminectomy was performed at spine T9-10 level to expose a spinal cord keeping intact dura. And then, rat was put on Spinal cord dropping device (NYU); spine processes at T8 and T11 sites were fixed by using a clamp, respectively; then, a rod (diameter 2 mm, weight 10 g) was dropped from 25 mm height vertical to dorsal part of spinal cord followed by suturing injury site muscle and skin. The rat of Sham-operated control group was performed only laminectomy at same area without damaging spinal cord injury (marked by ‘sham” in figures; hereinafter, the same as above).
# Substance P (marked by ‘SP’ in figures; hereinafter, the same as above) dissolved in saline of 5 nmol/kg concentration was injected through tail vein at immediately, 24 hours, and 48 hours after a spinal cord injury for experimental groups. At sham control group, same volume of saline (marked by ‘vehicle’ in figures; hereinafter, the same as above) without Substance P was injected at same time points. Operation were performed on an electric heating pad of 37° C., and then rat were transferred to cage after awake from the anesthetic. • (2) Preparation of Tissue […]
# [2] = tested on: M2 (ED1 positive, CD206 positive) phenotype macrophages; assay: MACS assay of M1/M2 phenotype macrophages in spinal cord injury model; conditions: tail vein injection, five days after spinal cord injury
# Method: as §1, with “The rat of Sham-operated control group was performed only laminectomy at same area without damaging spinal cord injury (marked by ‘sham” in figures; hereinafter, the same as above).” left out
# Microglia and macrophage have an inflammatory macrophage phenotype (M1) and selectively activated macrophage phenotype (M2). […] MACS (Miltenyi Biotec, Bergisch Gladbach) assay was performed in order to determine a quantitative amount of M1 (ED1 positive, CD206 negative) and M2 (ED1 positive, CD206 positive) phenotype macrophages after Substance P-injection in a spinal cord injury model.
# At immediately, 1 d, 2d, Substance P or saline (the same volume without Substance P) was injected to a tail vein after a spinal cord injury, using the same method as (1) of Example 1. […] Magnetically labeled cells were collected by washing the column and then counted. […]
# [3] = tested on: TNF-α and IL-10 in peripheral blood; assay: ELISA of cytokines in peripheral blood in spinal cord injury model; conditions: 5 nmol/kg tail vein; serum at 1 hour, 6 hours, 1 day, 3 days, 5 days; vs control
# Method: as §1, with “above). […]” for “above).”
# At immediately, 1 d, 2 ds, in order to investigate an effect of Substance P in cytokine in a peripheral blood, Substance P (5 nmol/kg in saline) or saline (the same volume without Substance P) was injected through tail vein, respectively using the same method as (1) of Example 1. […] Finally, The levels of TNF-α and IL-10 were measured by using ELISA kit (R&D Systems).
substance,measurement,setting,value
Substance P,inhibition of tissue lose,[1]; at 2 mm rostal and caudal from the center,at least 50%
same,MBP-positive sheath,"[1]; tail vein injection, after spinal cord injury",well preserved
same,CD-206 positive percentage as compared with the control,[2],about 6.5 times
same,activated microglia/macrophages CD-206 positive,[2],58.7%
same,level of IL-10 in peripheral blood,[3],no meaningful differences
same,level of TNF-α in peripheral blood,[3],no meaningful differences
